Patent publication US20230405316A1, “COMPOSITIONS, SYSTEMS, AND METHODS FOR TREATING CANCER USING TUMOR TREATING FIELDS AND VEGF INHIBITORS” (Novocure Gmbh, priority 2022, published 2023)
Where a name gives a salt, the structure may show the parent alone.

Assays:
VEGFR-3 = VEGFR-3 (Homo sapiens, UniProt P35916); details: cited from earlier work
VEGFR-2 = VEGFR-2 (Homo sapiens, UniProt P35968); details: cited from earlier work
VEGFR-1 = VEGFR-1 (Homo sapiens, UniProt P17948); details: cited from earlier work
[1] = test system: ovarian carcinoma cell line (A2780); experiment: Concomitant therapy with TTFields and lenvatinib, cell count and apoptosis; assay type: cell-based; details: A2780 cells, 4 μM Lenvatinib combined with TTFields vs either therapy alone
Protocol: FIG. 5 contains photomicrographs of A2780 cells following TTFields treatment alone, treatment with 4 μM Lenvatinib, and concomitant therapy with both TTFields and 4 μM Lenvatinib.
In particular, the combinatorial effect of TTFields and lenvatinib was examined in an ovarian carcinoma cell line (A2780).

Chain of VEGFR-3 (P35916 25-1363, species assumed): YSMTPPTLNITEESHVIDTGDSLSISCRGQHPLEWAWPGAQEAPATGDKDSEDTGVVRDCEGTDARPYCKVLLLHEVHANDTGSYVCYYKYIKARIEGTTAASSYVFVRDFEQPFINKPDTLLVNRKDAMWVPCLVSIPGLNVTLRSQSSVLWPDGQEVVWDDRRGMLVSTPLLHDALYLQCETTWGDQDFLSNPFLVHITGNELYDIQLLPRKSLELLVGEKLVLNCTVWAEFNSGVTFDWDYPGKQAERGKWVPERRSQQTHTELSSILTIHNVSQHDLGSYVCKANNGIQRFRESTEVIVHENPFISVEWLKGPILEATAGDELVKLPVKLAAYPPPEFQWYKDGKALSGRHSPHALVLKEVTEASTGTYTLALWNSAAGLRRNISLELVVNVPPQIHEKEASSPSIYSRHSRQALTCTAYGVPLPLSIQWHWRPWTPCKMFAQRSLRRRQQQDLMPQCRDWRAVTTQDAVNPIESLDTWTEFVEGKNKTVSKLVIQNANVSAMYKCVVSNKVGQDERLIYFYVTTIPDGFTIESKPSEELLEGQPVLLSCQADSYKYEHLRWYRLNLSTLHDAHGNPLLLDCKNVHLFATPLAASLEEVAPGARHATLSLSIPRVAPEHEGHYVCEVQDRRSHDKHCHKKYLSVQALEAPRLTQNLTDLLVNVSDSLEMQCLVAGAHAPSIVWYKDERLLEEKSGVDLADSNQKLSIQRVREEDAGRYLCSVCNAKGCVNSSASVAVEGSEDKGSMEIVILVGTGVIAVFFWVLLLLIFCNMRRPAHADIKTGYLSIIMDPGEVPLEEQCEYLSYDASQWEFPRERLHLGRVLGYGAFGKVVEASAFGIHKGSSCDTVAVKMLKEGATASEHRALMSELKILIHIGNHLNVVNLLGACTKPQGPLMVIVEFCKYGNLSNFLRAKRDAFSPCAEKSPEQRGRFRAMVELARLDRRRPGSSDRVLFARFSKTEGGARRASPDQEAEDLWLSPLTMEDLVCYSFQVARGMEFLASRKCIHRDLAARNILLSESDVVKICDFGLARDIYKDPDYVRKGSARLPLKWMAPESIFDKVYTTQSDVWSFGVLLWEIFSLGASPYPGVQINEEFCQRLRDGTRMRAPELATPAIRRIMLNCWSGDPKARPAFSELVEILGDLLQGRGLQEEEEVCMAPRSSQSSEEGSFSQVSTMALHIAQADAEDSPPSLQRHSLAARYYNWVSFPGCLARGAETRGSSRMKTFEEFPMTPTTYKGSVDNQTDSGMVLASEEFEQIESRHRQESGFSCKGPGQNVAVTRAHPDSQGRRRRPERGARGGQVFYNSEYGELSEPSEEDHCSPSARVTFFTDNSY
Chain of VEGFR-1 (P17948 27-1338, species assumed): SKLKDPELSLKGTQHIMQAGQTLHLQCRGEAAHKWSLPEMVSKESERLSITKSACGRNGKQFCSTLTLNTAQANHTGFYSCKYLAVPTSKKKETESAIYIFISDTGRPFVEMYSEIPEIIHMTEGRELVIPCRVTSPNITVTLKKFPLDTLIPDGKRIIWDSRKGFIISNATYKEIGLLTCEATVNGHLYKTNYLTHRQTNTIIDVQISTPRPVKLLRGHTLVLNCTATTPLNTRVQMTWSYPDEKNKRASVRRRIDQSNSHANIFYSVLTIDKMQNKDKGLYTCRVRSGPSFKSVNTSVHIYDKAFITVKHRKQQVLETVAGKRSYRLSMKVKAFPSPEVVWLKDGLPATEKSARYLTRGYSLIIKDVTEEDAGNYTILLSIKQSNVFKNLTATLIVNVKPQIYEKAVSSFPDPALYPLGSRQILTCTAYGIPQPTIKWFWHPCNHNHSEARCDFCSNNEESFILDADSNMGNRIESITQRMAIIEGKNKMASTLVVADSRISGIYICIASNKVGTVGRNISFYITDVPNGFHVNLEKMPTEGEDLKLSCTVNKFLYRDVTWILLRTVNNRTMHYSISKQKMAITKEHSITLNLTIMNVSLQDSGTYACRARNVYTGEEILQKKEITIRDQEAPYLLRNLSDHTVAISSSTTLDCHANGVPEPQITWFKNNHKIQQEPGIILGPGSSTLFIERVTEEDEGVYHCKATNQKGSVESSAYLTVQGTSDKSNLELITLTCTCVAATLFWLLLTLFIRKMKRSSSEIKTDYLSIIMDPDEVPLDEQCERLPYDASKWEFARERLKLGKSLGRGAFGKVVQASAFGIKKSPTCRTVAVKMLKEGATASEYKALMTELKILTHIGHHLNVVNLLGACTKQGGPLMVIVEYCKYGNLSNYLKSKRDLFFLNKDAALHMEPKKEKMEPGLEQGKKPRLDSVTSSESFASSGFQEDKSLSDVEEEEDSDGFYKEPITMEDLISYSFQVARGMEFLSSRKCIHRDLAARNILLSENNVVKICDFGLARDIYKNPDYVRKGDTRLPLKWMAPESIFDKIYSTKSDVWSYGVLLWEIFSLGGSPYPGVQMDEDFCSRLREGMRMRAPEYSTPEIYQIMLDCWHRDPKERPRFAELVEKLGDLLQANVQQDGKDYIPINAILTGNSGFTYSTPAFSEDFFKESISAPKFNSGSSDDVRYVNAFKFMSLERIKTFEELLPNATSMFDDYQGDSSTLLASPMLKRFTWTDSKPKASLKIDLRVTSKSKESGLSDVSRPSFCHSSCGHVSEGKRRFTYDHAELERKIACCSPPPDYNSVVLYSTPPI
Chain of VEGFR-2 (P35968 20-1356, species assumed): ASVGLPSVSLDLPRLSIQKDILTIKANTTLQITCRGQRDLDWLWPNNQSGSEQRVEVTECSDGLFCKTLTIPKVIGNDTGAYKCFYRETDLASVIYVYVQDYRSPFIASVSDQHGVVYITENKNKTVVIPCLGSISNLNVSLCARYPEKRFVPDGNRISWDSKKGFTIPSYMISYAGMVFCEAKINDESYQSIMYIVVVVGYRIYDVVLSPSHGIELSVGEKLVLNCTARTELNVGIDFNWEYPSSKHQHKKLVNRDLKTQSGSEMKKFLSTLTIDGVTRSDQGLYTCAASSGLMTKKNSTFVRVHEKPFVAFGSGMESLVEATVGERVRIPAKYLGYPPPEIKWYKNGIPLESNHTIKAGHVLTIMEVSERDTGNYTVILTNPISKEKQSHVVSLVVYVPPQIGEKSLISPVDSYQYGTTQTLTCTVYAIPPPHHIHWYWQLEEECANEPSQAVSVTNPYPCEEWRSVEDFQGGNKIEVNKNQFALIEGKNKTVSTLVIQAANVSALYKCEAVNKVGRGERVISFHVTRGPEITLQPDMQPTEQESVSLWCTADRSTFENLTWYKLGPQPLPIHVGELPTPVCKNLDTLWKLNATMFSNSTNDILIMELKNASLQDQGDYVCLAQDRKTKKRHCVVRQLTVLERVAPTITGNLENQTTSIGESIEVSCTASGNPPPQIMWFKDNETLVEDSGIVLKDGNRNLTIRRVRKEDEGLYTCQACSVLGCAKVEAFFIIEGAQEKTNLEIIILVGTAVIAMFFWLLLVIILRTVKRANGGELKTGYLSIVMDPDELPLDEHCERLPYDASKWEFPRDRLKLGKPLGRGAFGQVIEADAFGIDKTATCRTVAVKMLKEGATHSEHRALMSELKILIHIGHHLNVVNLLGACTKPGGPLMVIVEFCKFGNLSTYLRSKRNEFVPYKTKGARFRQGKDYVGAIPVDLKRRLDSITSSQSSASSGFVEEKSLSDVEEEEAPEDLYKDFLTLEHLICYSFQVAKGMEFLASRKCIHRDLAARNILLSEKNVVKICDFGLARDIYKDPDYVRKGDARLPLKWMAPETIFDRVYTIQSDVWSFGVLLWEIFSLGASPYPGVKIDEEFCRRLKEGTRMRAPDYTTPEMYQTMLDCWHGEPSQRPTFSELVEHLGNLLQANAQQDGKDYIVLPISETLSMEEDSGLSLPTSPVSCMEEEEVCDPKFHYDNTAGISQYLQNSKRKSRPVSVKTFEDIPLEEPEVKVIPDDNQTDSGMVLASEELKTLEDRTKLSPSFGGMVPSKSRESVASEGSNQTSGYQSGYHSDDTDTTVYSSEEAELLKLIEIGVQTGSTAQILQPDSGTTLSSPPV

For `COc1cc2c(Oc3ccc4[nH]c(C)cc4c3F)ccnc2cc1OCC1(N)CC1` [Anlotinib], the “IC50 for VEGFR-3” value (VEGFR-3) is listed as “Does not bind”, the IC50 (VEGFR-2) is listed as less than 1 nM and the “IC50 for VEGFR-1” value (VEGFR-1) is listed as “Does not bind”.

For `COc1cc2nccc(Oc3ccc(NC(=O)C4(C(=O)Nc5ccc(F)cc5)CC4)cc3)c2cc1OC` [Cabozantinib], the “IC50 for VEGFR-3” value (VEGFR-3) is given as “Does not bind”.

For `COc1cc2nccc(Oc3ccc(NC(=O)Nc4ccc(F)cc4F)c(F)c3)c2cc1OC` [Ki8751], the IC50 (VEGFR-2) is given as 0.9 nM.

With `COc1cc2nccc(Oc3ccc(NC(=O)NC4CC4)c(Cl)c3)c2cc1C(N)=O` [Lenvatinib] the “effect of concomitant therapy on apoptosis” value [1] was “enhanced effect over either therapy alone” and the “effect of concomitant therapy on cell count” value [1] was “enhanced effect over either therapy alone”.

For `Cc1c(C(=O)Nc2ccc(Oc3ccnc4cc(OCC(C)(C)O)ccc34)c(F)c2)c(=O)n(-c2ccccc2)n1C` [Ningetinib], the IC50 (VEGFR-2) is given as 1.9 nM.

For `Cn1cc(-c2ccc3c(c2)ncn3-c2cc(NS(=O)(=O)C3CC3)cc(-c3ccc(F)cc3F)c2)cn1` [ODM-203], the IC50 (VEGFR-3) is given as 5 nM, the IC50 (VEGFR-2) is given as 9 nM and the IC50 (VEGFR-1) is given as 26 nM.

In the case of `COc1cc2c(cc1F)C(c1ccccc1Cl)=Nc1c(n[nH]c1C)N2` [R1530], the IC50 (VEGFR-2) is listed as 10 nM.

For `Cc1[nH]c(/C=C2\C(=O)Nc3ccc(F)cc32)c(C)c1C(=O)NC[C@H](O)CN1CCOCC1` [SU14813], the IC50 (VEGFR-2) is given as 50 nM and the IC50 (VEGFR-1) is given as 2 nM.

In the case of `CNC(=O)c1cc2c(Oc3ccc(NC(=O)C4(C(=O)Nc5ccc(F)cc5)CC4)cc3)ccnc2cc1OC` [XL092], the IC50 (VEGFR-2) is listed as 1.6 nM.

For `Cc1cc(F)c(Nc2ncnc3cc(OCc4ccccc4)ccc23)cc1O` [ZM 323881 HCl], the IC50 (VEGFR-2) is listed as less than 2 nM.
